Test results reported in patent US11325938B2, “CD73 inhibitors” (ORIC Pharmaceuticals, Inc., priority 2018, dated 2022).

Biological target: CD73 (Homo sapiens (Human), UniProt P21589)
Experiment: Biochemical assay: inhibition of CD73 activity (AMP hydrolysis, Malachite Green readout)
Conditions: CD73 0.3208 nM, AMP 15 μM, 25 mM Tris-HCl pH 7.4, RT, absorbance 620 nm
Protocol: Example A1: Biochemical Assay
Assay Reaction Conditions
• Assay Volume: 70 μl • Reaction Volume: 50 μl • CD73: 0.3208 nM • AMP: 15 μM • Assay Buffer: 25 mM Tris-HCL, pH 7.4, 0.01% Brij-35, 0.01% BSA, 5 mM MgCl2 Assay Procedure:
Made dose titration of testing compounds in assay buffer, 10 points ½ log titrations in duplicates starting at 100 μM.
Added 25 μl of CD73 to each well for a final concentration of 320 pM.
Incubated at RT for 15 min.
Added 25 μl of AMP to each well for a final concentration of 15 μM.
Incubated at RT for 10 min.
Added 10 μl of Malachite Green Reagent A, incubate at RT for 10 min.
Added 10 of Malachite Green Reagent B, incubate at RT for 45 min.
Read the Absorbance on Envision plate reader using excitation filter: Cy5 […].
The ability of the compounds disclosed herein to inhibit CD73 activity was quantified and the respective IC50 values were determined. Table 2 provides the biochemical IC50 values of compounds disclosed herein.

CD73, sequence (P21589 27-574): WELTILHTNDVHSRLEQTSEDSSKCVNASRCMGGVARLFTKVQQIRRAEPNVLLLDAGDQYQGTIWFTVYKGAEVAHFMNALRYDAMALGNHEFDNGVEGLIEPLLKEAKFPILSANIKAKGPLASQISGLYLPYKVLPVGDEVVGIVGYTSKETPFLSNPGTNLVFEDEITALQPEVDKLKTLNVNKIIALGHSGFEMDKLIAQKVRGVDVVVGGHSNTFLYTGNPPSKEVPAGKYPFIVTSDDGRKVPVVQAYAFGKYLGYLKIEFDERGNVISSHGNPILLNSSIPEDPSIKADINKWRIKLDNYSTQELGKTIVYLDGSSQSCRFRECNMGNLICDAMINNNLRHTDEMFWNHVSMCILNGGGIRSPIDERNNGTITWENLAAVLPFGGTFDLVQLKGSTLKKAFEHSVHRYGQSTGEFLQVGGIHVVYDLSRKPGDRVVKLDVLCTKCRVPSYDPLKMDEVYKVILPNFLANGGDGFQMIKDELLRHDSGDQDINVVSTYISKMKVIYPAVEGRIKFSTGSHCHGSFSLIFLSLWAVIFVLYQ

SMILES | IC50
CS(=O)(=O)CC(CO)(OC[C@H]1O[C@@H](n2ncc3c(NC4CCCC4)nc(Cl)nc32)[C@H](O)[C@@H]1O)P(=O)(O)O (stereo partly drawn) [Example 107, (2-(((2R,3S,4R,5R)-5-(6-chloro-4-(cyclopentylamino)-1H-pyrazolo[3,4-d]pyrimidin-1-yl)-3,4-dihydroxytetrahydrofuran-2-yl)methoxy)-1-hydroxy-3-(methylsulfonyl)propan-2-yl)phosphonic acid] | ≤ 0.1 µM
CC(C)(O)COc1nc(NC2CCCC2)c2cnn([C@@H]3O[C@H](COC(C)(CO)P(=O)(O)O)[C@@H](O)[C@H]3O)c2n1 (stereo partly drawn) [Example 146, (2-(((2R,3S,4R,5R)-5-(4-(cyclopentylamino)-6-(2-hydroxy-2-methylpropoxy)-1H-pyrazolo[3,4-d]pyrimidin-1-yl)-3,4-dihydroxytetrahydrofuran-2-yl)methoxy)-1-hydroxypropan-2-yl)phosphonic acid] | ≤ 0.1 µM
COC[C@](C)(OC[C@H]1O[C@@H](n2ncc3c(NC4CCCC4)nc(Cl)nc32)[C@H](O)[C@@H]1O)P(=O)(O)O [Example 69, ((R)-2-(((2R,3S,4R,5R)-5-(6-chloro-4-(cyclopentylamino)-1H-pyrazolo[3,4-d]pyrimidin-1-yl)-3,4-dihydroxytetrahydrofuran-2-yl)methoxy)-1-methoxypropan-2-yl)phosphonic acid] | ≤ 0.1 µM
O=P(O)(O)C(CO)OC[C@H]1O[C@@H](n2ncc3c(NC4CCCC4)nc(Cl)nc32)[C@H](O)[C@@H]1O (stereo partly drawn) [Example 13, (1-(((2R,3S,4R,5R)-5-(6-chloro-4-(cyclopentylamino)-1H-pyrazolo[3,4-d]pyrimidin-1-yl)-3,4-dihydroxytetrahydrofuran-2-yl)methxoy)-2-hydroxyethyl)phosphonic acid] | ≤ 0.1 µM
CC(CO)(OC[C@H]1O[C@@H](n2ncc3c(NC4CCCC4)cc(Cl)nc32)[C@H](O)[C@@H]1O)P(=O)(O)O (stereo partly drawn) [Example 152, (2-(((2R,3S,4R,5R)-5-(6-chloro-4-(cyclopentylamino)-1H-pyrazolo[3,4-b]pyridin-1-yl)-3,4-dihydroxytetrahydrofuran-2-yl)methoxy)-1-hydroxypropan-2-yl)phosphonic acid] | ≤ 0.1 µM
O=P(O)(O)C(CO)OC[C@@H]1C[C@@H](O)[C@H](n2ncc3c(NC4CCCC4)nc(Cl)nc32)O1 (stereo partly drawn) [Example 40, (1-(((2S,4R,5R)-5-(6-chloro-4-(cyclopentylamino)-1H-pyrazolo[3,4-d]pyrimidin-1-yl)-4-hydroxytetrahydrofuran-2-yl)methoxy)-2-hydroxyethyl)phosphonic acid] | ≤ 0.1 µM
CC(O)C(OC[C@H]1O[C@@H](n2ncc3c(NC4CCCC4)nc(Cl)nc32)[C@H](O)[C@@H]1O)P(=O)(O)O (stereo partly drawn) [Example 42, (1-(((2R,3S,4R,5R)-5-(6-chloro-4-(cyclopentylamino)-1H-pyrazolo[3,4-d]pyrimidin-1-yl)-3,4-dihydroxytetrahydrofuran-2-yl)methoxy)-2-hydroxypropyl)phosphonic acid] | ≤ 0.1 µM
O=P(O)(O)[C@](CO)(Cc1nn[nH]n1)OC[C@H]1O[C@@H](n2ncc3c(NC4CCC4)nc(Cl)nc32)[C@H](O)[C@@H]1O (racemic) [Example 214, rac-((R)-2-(((2S,3R,4S,5S)-5-(6-chloro-4-(cyclobutylamino)-1H-pyrazolo[3,4-d]pyrimidin-1-yl)-3,4-dihydroxytetrahydrofuran-2-yl)methoxy)-1-hydroxy-3-(2H-tetrazol-5-yl)propan-2-yl)phosphonic acid] | ≤ 0.1 µM
O=P(O)(O)C(CO)(CO)OC[C@H]1O[C@@H](n2ncc3c(N[C@@H]4CCc5ccccc54)nc(Cl)nc32)[C@H](O)[C@@H]1O [Example 113, (2-(((2R,3S,4R,5R)-5-(6-chloro-4-(((R)-2,3-dihydro-1H-inden-1-yl)amino)-1H-pyrazolo[3,4-d]pyrimidin-1-yl)-3,4-dihydroxytetrahydrofuran-2-yl)methoxy)-1,3-dihydroxypropan-2-yl)phosphonic acid] | ≤ 0.1 µM
CC(CO)(OC[C@H]1O[C@@H](n2ncc3c(NC4CCCC4)nc(C#CCO)nc32)[C@H](O)[C@@H]1O)P(=O)(O)O (stereo partly drawn) [Example 89, (2-(((2R,3S,4R,5R)-5-(4-(Cyclopentylamino)-6-(3-hydroxyprop-1-yn-1-yl)-1H-pyrazolo[3,4-d]pyrimidin-1-yl)-3,4-dihydroxytetrahydrofuran-2-yl)methoxy)-1-hydroxypropan-2-yl)phosphonic acid] | ≤ 0.1 µM
O=C(O)c1ccc(C[C@](CO)(OC[C@H]2O[C@@H](n3ncc4c(NC5CCCC5)nc(Cl)nc43)[C@H](O)[C@@H]2O)P(=O)(O)O)cc1 (racemic) [Example 188, rac-4-((R)-2-(((2S,3R,4S,5S)-5-(6-chloro-4-(cyclopentylamino)-1H-pyrazolo[3,4-d]pyrimidin-1-yl)-3,4-dihydroxytetrahydrofuran-2-yl)methoxy)-3-hydroxy-2-phosphonopropyl)benzoic acid] | 0.1 to 1 µM
C[C@](CO)(OC[C@H]1O[C@@H](n2ncc3c(NC4CCCC4)nc(C#CCO)nc32)[C@H](O)[C@@H]1O)P(=O)(O)O (racemic) [Example 199, rac-((R)-2-(((2S,3R,4S,5S)-5-(4-(cyclopentylamino)-6-(3-hydroxyprop-1-yn-1 yl)-1H-pyrazolo[3,4-d]pyrimidin-1-yl)-3,4-dihydroxytetrahydrofuran-2-yl)methoxy)-1-hydroxypropan-2-yl)phosphonic acid] | ≤ 0.1 µM
CCS(=O)(=O)C[C@@](C)(OC[C@H]1O[C@@H](n2ncc3c(NC4CCCC4)nc(Cl)nc32)[C@H](O)[C@@H]1O)P(=O)(O)O [Example 138, ((S)-2-(((2R,3S,4R,5R)-5-(6-chloro-4-(cyclopentylamino)-1H-pyrazolo[3,4-d]pyrimidin-1-yl)-3,4-dihydroxytetrahydrofuran-2-yl)methoxy)-1-(ethylsulfonyl)propan-2-yl)phosphonic acid] | ≤ 0.1 µM
O=C(c1ccccc1)C(OC[C@H]1O[C@@H](n2ncc3c(NC4CCCC4)nc(Cl)nc32)[C@H](O)[C@@H]1O)P(=O)(O)O (stereo partly drawn) [Example 41, (1-(((2R,3S,4R,5R)-5-(6-chloro-4-(cyclopentylamino)-1H-pyrazolo[3,4-d]pyrimidin-1-yl)-3,4-dihydroxytetrahydrofuran-2-yl)methoxy)-2-oxo-2-phenylethyl)phosphonic acid] | 0.1 to 1 µM
C[C@](CO)(OC[C@H]1O[C@@H](n2ncc3c(NC4CCCC4)nc(Cl)nc32)[C@H](O)[C@@H]1O)P(=O)(O)O [Example 62, ((S)-2-(((2R,3S,4R,5R)-5-(6-chloro-4-(cyclopentylamino)-1H-pyrazolo[3,4-d]pyrimidin-1-yl)-3,4-dihydroxytetrahydrofuran-2-yl)methoxy)-1-hydroxypropan-2-yl)phosphonic acid] | ≤ 0.1 µM
CC1(Nc2nc(Cl)nc3c2cnn3[C@@H]2O[C@H](CO[C@@](C)(CO)P(=O)(O)O)[C@@H](O)[C@H]2O)CCCC1 [Example 105, ((R)-2-(((2R,3S,4R,5R)-5-(6-chloro-4-((1-methylcyclopentyl)amino)-1H-pyrazolo[3,4-d]pyrimidin-1-yl)-3,4-dihydroxytetrahydrofuran-2-yl)methoxy)-1-hydroxypropan-2-yl)phosphonic acid] | ≤ 0.1 µM
C[C@](CO)(OC[C@H]1O[C@@H](n2ncc3c(NC4CCCC4)cc(Cl)nc32)[C@H](O)[C@@H]1O)P(=O)(O)O (racemic) [Example 193, rac-((R)-2-(((2S,3R,4S,5S)-5-(6-chloro-4-(cyclopentylamino)-1H-pyrazolo[3,4-b]pyridin-1-yl)-3,4-dihydroxytetrahydrofuran-2-yl)methoxy)-1-hydroxypropan-2-yl)phosphonic acid] | ≤ 0.1 µM
CC(CO)(OC[C@H]1O[C@@H](n2ncc3c(NC4CCCC4)nc(Cl)nc32)[C@H](O)[C@@H]1O)P(=O)(O)O (stereo partly drawn) [Example 15, (2-(((2R,3S,4R,5R)-5-(6-Chloro-4-(cyclopentylamino)-1H-pyrazolo[3,4-d]pyrimidin-1-yl)-3,4-dihydroxytetrahydrofuran-2-yl)methoxy)-1-hydroxypropan-2-yl)phosphonic acid] | ≤ 0.1 µM
O=P(O)(O)C(CO)(COCCO)OC[C@H]1O[C@@H](n2ncc3c(NC4CCCC4)nc(Cl)nc32)[C@H](O)[C@@H]1O (mixture of isomers) [Example 172, rac-(2-(((2R,3S,4R,5R)-5-(6-chloro-4-(cyclopentylamino)-1H-pyrazolo[3,4-d]pyrimidin-1-yl)-3,4-dihydroxytetrahydrofuran-2-yl)methoxy)-1-hydroxy-3-(2-hydroxyethoxy)propan-2-yl)phosphonic acid] | ≤ 0.1 µM
CC(C)(O)COc1nc(NC2CCCC2)c2cnn([C@@H]3O[C@H](COC(CO)(CO)P(=O)(O)O)[C@@H](O)[C@H]3O)c2n1 (racemic) [Example 175, rac-(2-(((2R,3S,4R,5R)-5-(4-(cyclopentylamino)-6-(2-hydroxy-2-methylpropoxy)-1H-pyrazolo[3,4-d]pyrimidin-1-yl)-3,4-dihydroxytetrahydrofuran-2-yl)methoxy)-1,3-dihydroxypropan-2-yl)phosphonic acid] | ≤ 0.1 µM
COCC(C)(OC[C@H]1O[C@H](n2nnc3c(N[C@@H]4CCc5ccccc54)nc(Cl)nc32)[C@H](O)[C@@H]1O)P(=O)(O)O (stereo partly drawn) [Example 154, (2-(((2R,3S,4R,5S)-5-(5-chloro-7-(((R)-2,3-dihydro-1H-inden-1-yl)amino)-3H-[1,2,3]triazolo[4,5-d]pyrimidin-3-yl)-3,4-dihydroxytetrahydrofuran-2-yl)methoxy)-1-methoxypropan-2-yl)phosphonic acid] | ≤ 0.1 µM
